Experimental findings from patent publication US5614548A, “Quaternary amine containing ether or ester lipid derivatives and therapeutic compositions” (priority 1994, dated 1997) are described below.

Structures are written as SMILES.

The subject of test [1] is CEM-SS cells. The experiment in a line: CEM-SS cell growth (3H-TdR uptake). The format is cell-based. The following applies: Homo sapiens, 48 hours, N = 3, read-out: Inhibitory Concentration50 CEM-SS Cell Growth. From the text:
(§1) Next investigated were the correlations of EL analog structure with anti-HIV-l and anti-cell growth. The experimental method used six serial two-fold dilutions of EL that spanned concentrations above and below a concentration that inhibits HIV-1 plaque count, cell growth (^3 H-TdR uptake into cell DNA) or in vitro PKC activity by 50% (inhibitory concentration50 =IC50) compared to an appropriate mock treated control. Table 7 summarizes data on IC50 of phosphorus and non-phosphorus compounds for HIV-1 plaque formation and cell growth.
formation are x ± one SD., N = 4. CEMSS cell growth is measured in
suspension cultures by treating the cells with compound for 48 hours at
37° C. and then adding 1 μCi of ^3 HTdR (S.A. = 20 Ci/mmole
for 8 hours at 37° C. to measure DNA synthesis. IC50 values
for CEMSS growth are x of a representative experiment, N = 3.

For test [2], the system named is HIV-1. The test can be described thus: HIV-1 plaque assay, inhibitor added 60 minutes after infection. The following applies: for anti-HIV-1 activity: HIV-1 plaque formation, in words; for IC50: Human immunodeficiency virus 1, CEM-SS monolayers, compound from sixty minutes after infection, N = 4, read-out: Inhibitory Concentration50 HIV-1 Plaque Formation. The class given is cell-based, human immunodeficiency virus type 1 (HIV-1).
Source text: (§2) Dextran sulfate was used as a positive control. […] Plaques were counted at five days after infection.
(§3) By way of further background, in our assay HIV-1 syncytial plaques are seen as large, multicellular foci (10 to 25 nuclei/syncytium) that appear either brown and granular or clear. Since the number of HIV-1 syncytial plaques correlates with reverse transcriptase (RT) and p24 core antigen activity in the HIV-1 infected cell overlay fluids, the syncytial plaque assay can be used to quantify the amount of infectious virus. Reverse transcriptase activity was assayed according to a described procedure (B. J. Poeisz et al., Proc. Natl. Acad. Sci. (U.S.A.) […], 7415 (1980)). The activity of p24 core antigen induced by HIV-1 infection of CEM-SS cells was measured spectrophotometrically using the commercial Abbott EIA.
(§4) Compound E inhibited HIV-1 plaque count 43%, 83%, and 91% at concentrations of 0.2, 0.4, and 2.0 μM, respectively, compared to untreated controls. […] In other experiments addition of 0.2, 0.4 and 2.0 μM Compound E starting sixty minutes after HIV-1 infection inhibited HIV-1 plaque formation 28%, 59% and 97% respectively, compared to untreated controls.
as §1
^1 Serial 2fold dilutions of compounds are used. HIV1 plaque formatio
is measured in CEMSS cell monolayers by having compound present starting
sixty minutes after virus infection. IC50 values for HIV1 plaque
formation are x ± one SD., N = 4. CEMSS cell growth is measured in […]

Test [3] deals with HL60 human leukemia cell line. The test can be described thus: HL60 cell growth inhibition (trypan blue, 48 h). The class given is cell-based. The note with it: Homo sapiens, HL-60, 48 h, HL60, 48 hours; read-out: ID50 (the source's name). Here is the method:
A number of the compounds disclosed herein have been tested against the HL60 human leukemia cell line to assess their cytotoxic potential. These analogs were investigated in parallel with ET-18-OMe which was used as the reference compound. The methodologies used in this investigation were the same as described in A. Noseda, M. Berens, C. Piantadosi, and E. J. Modest, Lipids 22, 878-883, 1987. In brief, HL60 cells at a concentration of […] were incubated in wells with one milliliter medium with the experimental drug in parallel with the same concentration of cells with ET-18-OMe (standard) or EtOH (control). After 48 hours of incubation the cells were counted using the trypan blue dye exclusion technique to determine the effect of the drug on cell growth. The experimental drug and ET-18-OMe were tested at the same concentrations, e.g., 10, 5, 2.5 and 1.25 μM.

The subject of test [4] is HIV-1. The test can be described thus: HIV-1 plaque assay, inhibitor added 30 minutes before infection. The format is cell-based, human immunodeficiency virus type 1 (HIV-1).
Source text: as §2, §3, §4

Test [5] concerns Protein Kinase C. The test can be described thus: Protein Kinase C activity (32P incorporation into histone). The format is biochemical, human (HL-60 cells). How it is done: PKC was prepared and assayed as described previously. See Daniel, L. W. et al., Biochem. Biophys. Res. Comm. 151, 291 (1988). In brief, HL-60 cells were grown in 75 milliliter flasks, harvested and washed with ice-cold normal saline. After centrifugation (600×g, 5 minutes, 4° Centigrade), the cell pellet was resuspended (20 mM Tris-HCl, pH 7.5, 2 mM EDTA, 10 mM EGTA, 50 mM 2-mercaptoethanol, 2 mM phenylmethylsulfonyl fluoride) and sonicated for 20 s with a stepped microprobe sonciator. Unbroken cells were removed by centrifugation as above and the supernatant centrifuged (65,000×g, 90 minutes, 4° Centigrade). The supernatant from this step (cytosol) was then fractionated on a 1×8 cm DEAE-Sephacel column after addition to sucrose to a final concentration of 10%. After equilibrating the column (20 mM Tris, pH 7.5, 0.2 mM EDTA, 0.2 mM EGTA, 50 mM 2-mercaptoethanol, 10% sucrose), the sample was loaded and unbound material was washed through with 40 milliliters of the equilibrating buffer. The PKC was eluted by a gradient from 0-0.5M NaCl in the buffer described above. Fractions of 1 milliliter were collected at 25 milliliters per hour and 0.05 milliliter aliquots assayed for PKC activity as described below. The fractions with the highest activity were pooled and used in further experiments.
The assays were done at pH 7.5 in a total volume of 0.25 milliliter and all tubes contained 25 mM Tris, 10 mM MgCl2, 40 μg per milliliter histone, 10 μM ATP (including 1 μCi of [gamma-^32 P]-ATP), 0.1 mM CaCl2, 20 μg per milliliter phosphatidylserine, 0.05 milliliter of the PKC preparation and 2.5 μM of oleoylacetylglycerol (OAG). Enzymatic activity was determined as the incorporation of ^32 P from [gamma-^32 P]-ATP) into histone in the presence of Ca^2+, phosphatidylserine, and OAG. Reactions were initiated by the addition of the enzyme preparation and halted after 20 minutes at 30° Centigrade by the addition of 0.05 milliliters of bovine serum albumin (10 milligrams per milliliter) and 1 milliliter 25% ice-cold trichloroacetic acid. The tubes were kept on ice and then filtered in a millipore vacuum box using Millipore® HA filters and washed with 25% trichloroacetic acid. The radioactivity bound to the filters was determined by scintillation spectrometry in 5 milliliters Budget Solve®. […] The analog to be tested was dissolved in ethanol, and added directly into the reaction mixture before the addition of PKC. As a control, 0.1% ethanol was included in the samples with the enzyme but with no inhibitor.

Consider `CCCCCCCCCCCCCCCCOCC(O)(CO)CCCCCCCC` (stereo not shown) [J], for which the IC50 was greater than 20 µM in test [1] and greater than 10 µM in test [2]. In addition, the anti-HIV-1 activity result in test [2] is given as “did not inhibit HIV-1 plaque formation”.

For orientation: inhibition means the relative decrease from the control value, in per cent. With `CCCCCCCCCCCCCCCCSCC(C[N+](C)(C)CCO)OC.[Br-]` (racemic) [CJM 57, (±)-3-hexadecylthio-2-methoxy-N,N-dimethyl-N-β-hydroxyethyl-1-propyl ammonium bromide], the IC50 is 4.6 µM in test [3], 3.2 µM in test [1] and 0.37 ± 0.01 µM in test [2]. In addition, the inhibition at 0.2 µM in test [4] (Human immunodeficiency virus 1, 0.2 μM, 30 minutes before infection, Table 6) was 30%; in test [4] (Human immunodeficiency virus 1, HIV-1 plaque formation, 0.2 μM, Table 5), 43%; in test [2] (Human immunodeficiency virus 1, 1 h, 0.2 μM, 60 minutes after infection), 28%. The inhibition at 0.4 µM in test [4] (Human immunodeficiency virus 1, 0.4 μM, 30 minutes before infection, Table 6) came to 38%; in test [4] (Human immunodeficiency virus 1, HIV-1 plaque formation, 0.4 μM, Table 5, read-out: Inhibition (%)), 83%; in test [2] (Human immunodeficiency virus 1, 1 h, 0.4 μM, 60 minutes after infection), 59%. Moreover, the inhibition at 2 µM was 85% in test [4] (Human immunodeficiency virus 1, 2.0 μM, 30 minutes before infection, Table 6); 91% in test [4] (Human immunodeficiency virus 1, HIV-1 plaque formation, 2 μM, Table 5); 97% in test [2] (Human immunodeficiency virus 1, 1 h, 2.0 μM, 60 minutes after infection, read-out: Inhibition (%)). For the same molecule, in test [4] (added before or after infection, in words), the “antiviral activity (HIV-1 plaque formation)” value is “antiviral activity”. For the same molecule, the anti-HIV-1 activity result in test [2] was “significant anti-HIV-1 activity”.

As for `CCCCCCCCCCCCCCCCSCC(C[N+](C)(C)CCO)OCC` (stereo not shown) [B], the “Percent Protein Kinase C Activity Retained” value in test [5] (1.25 μM) was 92%; in test [5] (2.5 μM), 84%; in test [5] (5.0 μM), 70%; in test [5] (10.0 μM), 70%; in test [5] (20.0 μM), 66%; in test [5] (40.0 μM) it was 47%. Further, the IC50 in test [1] is 5.4 µM; in test [2], 0.63 ± 0.18 µM. Also, in test [2], the anti-HIV-1 activity entry was “significant anti-HIV-1 activity”.

Turning to `CCCCCCCCCCCCCCCCCCSCC(C[N+](C)(C)CCCO)OC` (stereo not shown) [I], the “Percent Protein Kinase C Activity Retained” value in test [5] (1.25 μM) was 75%; in test [5] (2.5 μM), 56%; in test [5] (5.0 μM), 49%; in test [5] (10.0 μM), 39%; in test [5] (20.0 μM), 27%; in test [5] (40.0 μM), 23%. The IC50 worked out at 3.4 µM in test [1] and 0.52 ± 0.33 µM in test [2]. Besides, the anti-HIV-1 activity entry in test [2] was “significant anti-HIV-1 activity”.

On to `CCCCCCCCCCCCCCCC(=O)OC[C@H](COP(=O)([O-])OCC[N+](C)(C)C)OC(=O)CCCCCCCCCCCCCCC` [dipalmitoyl-phosphatidylcholine, reference compound], for which the IC50 in test [1] is greater than 681 µM; in test [2], greater than 1360 µM.
